How the values were obtained:
NK cells and T cells = assay: NK and T cell numbers, maturation and FasL expression by flow cytometry after two-day treatment; assay type: in vivo, mice
Description: (§1) FIGS. 5A-5I show the effects of SHIP1 inhibitor as a chemotherapeutic. […] FIG. 5D and FIG. 5E show the representative histograms and box-and-whisker plots of FasL expression by NK cells from C56BL/6 (p=0.0002; Unpaired t test with Welch's correction) or RAG1−/− (p<0.0001; Mann-Whitney U test) tumor challenged, SHIP inhibitor or vehicle treated hosts. […] (NK cells p=0.0192; Unpaired t test with Welch's correction. T cells p=0.0659; Mann-Whitney U test). Additionally, FIGS. 5A-5G show the analysis by flow cytometry on day 3 after hosts receive SHIP inhibitor or vehicle for two consecutive days. NK cells are defined as NK1.1+CD3ε−. The graphs are representative of at least two independent experiments with at least four SHIP inhibitor and vehicle treated mice. […] Viability is expressed as frequency at a given concentration expressed as a percentage of solvent only treated cells. The kill curve summarizes pooled data from three independent experiments using six replicate wells/concentration with mean ±SEM indicated (n=18 per group. One-way ANOVA with Dunnett's multiple comparisons. 0 pM vs. 20 pM Adjusted p value =0.0001. 0 pM vs. 15 pM Adjusted p value =0.0001. 0 pM vs. 10 pM Adjusted p value =0.0001. 0 pM vs. 7.5 pM Adjusted p value =0.0001. 0 pM vs. 5 pM Adjusted p value =0.0001).
NK cells are able to directly kill target cells through several different mechanisms including both production of perforin and granzymes and induction of apoptosis via Fas-FasL signaling (Arase, H. et al., Fas-mediated cytotoxicity by freshly isolated natural killer cells. J Exp Med. (1995); 181: 1235-1238; Zamai, L. et al., Natural killer (NK) cell-mediated cytotoxicity: differential use of TRAIL and Fas ligand by immature and mature primary human NK cells. J Exp Med. (1998); 188: 2375-2380). […] SHIP1 was recently shown to be recruited to CD95/Fas to set a threshold for induction of Caspase 8, and thereby, a threshold for induction of apoptosis (Park, M. Y. et al., Impaired T-cell survival promotes mucosal inflammatory disease in SHIP1-deficient mice. Mucosal Immunol. (2014); 7: 1429-1439). This pathway might contribute to 3AC-mediated killing of lymphoma cells in a host-extrinsic fashion and, possibly, even to NK cell mediated clearance of tumor in vivo. To explore this possibility, whether 3AC induces FasL, the death ligand, on cytotoxic host cells present in the tumor site was examined. […] This is consistent with what has been previously reported with multiple myeloma, myeloid leukemias and T cell leukemia, and that others have recently reported in preB ALL (Park, M. Y. et al., Impaired T-cell survival promotes mucosal inflammatory disease in SHIP1-deficient mice. Mucosal Immunol. (2014); 7: 1429-1439; Brooks, R. et al., SHIP1 inhibition increases immunoregulatory capacity and triggers apoptosis of hematopoietic cancer cells. J Immunol. (2010); 184: 3582-3589; Fuhler, G. M. et al., Therapeutic potential of SH2 domain-containing inositol-5′-phosphatase 1 (SHIP1) and SHIP2 inhibition in cancer. Mol Med. (2012); 18: 65-75; Chen, Z. et al, Signalling thresholds and negative B-cell selection in acute lymphoblastic leukaemia. Nature. (2015)) . […] Therefore, the improved tumor clearance and survival following acute 3AC treatment in vivo may result from both a chemotherapeutic effect and enhanced immune control.

RMA cells = assay: Apoptosis (AnnexinV), Caspase 8 and CD95/Fas in RMA cells in culture; assay type: cell-based, mice
Description: as §1
NK cells are able to directly kill target cells through several different mechanisms including both production of perforin and granzymes and induction of apoptosis via Fas-FasL signaling (Arase, H. et al., Fas-mediated cytotoxicity by freshly isolated natural killer cells. J Exp Med. (1995); 181: 1235-1238; Zamai, L. et al., Natural killer (NK) cell-mediated cytotoxicity: differential use of TRAIL and Fas ligand by immature and mature primary human NK cells. J Exp Med. (1998); 188: 2375-2380). […] SHIP1 was recently shown to be recruited to CD95/Fas to set a threshold for induction of Caspase 8, and thereby, a threshold for induction of apoptosis (Park, M. Y. et al., Impaired T-cell survival promotes mucosal inflammatory disease in SHIP1-deficient mice. Mucosal Immunol. (2014); 7: 1429-1439). […]

[1] = RMA cells, culture for 12 hours

CC(C)CCC[C@@H](C)[C@H]1CC[C@H]2[C@@H]3CCC4C[C@H](N)CC[C@]4(C)[C@H]3CC[C@]12C (stereo partly drawn) [Compound 3AC, 3-α-aminocholestane]
FasL expression, splenic NK cells (NK cells and T cells; C57BL/6 mice, vs vehicle): small, but significantly increased frequency
terminal maturation of the peripheral NK cell compartment (NK cells and T cells; spleen, naive or tumor challenged C57BL/6 hosts, vs vehicle): significantly increased
number of NK cells at the tumor site in the peritoneal cavity (NK cells and T cells; tumor challenged C57BL/6 hosts, vs vehicle): significantly increased
FasL expression of host NK cells and T cells at the tumor site (NK cells and T cells; tumor challenged hosts, vs vehicle): profound acquisition of FasL
number of splenic NK cells (NK cells and T cells; two days of treatment vs vehicle): decreased numbers
frequency of death receptor CD95/Fas (RMA cells; 3AC-treated RMA cells): increased frequency
activation of Caspase 8 (RMA cells; [1]): increased activation of Caspase 8
induction of apoptosis (AnnexinV) (RMA cells; [1]): significant induction of apoptosis

Source: patent publication US11952328B2, “Selective ship inhibitors for treating disease” (THE RESEARCH FOUNDATION FOR THE STATE UNIVERSITY OF NEW YORK, priority 2018, dated 2024)
